Measurements: US20030228357A1, “Dry granulated formulations of azithromycin” (Pfizer Inc., priority 2002, published 2003)
“Also recorded” adds a separate entry of the source.

Assays:
Assay type in all cases: physicochemical
[1] = Indices of tableting performance (Hiestand) of bulk azithromycin; details: forms N, M, G, A milled, F and J unmilled
Experimental: Indices of tableting performance, for several azithromycin forms, were assessed to identify any mechanical deficiencies or attributes that may affect tablet formulation for these azithromycin forms. This assessment was performed in accordance with the procedures described in “Indices of Tableting, Performance” […] and D. P. Smith, Powder Technology 38 [1984] pp. 145-159. Specifically, the Brittle Fracture Index, BFI, was calculated from the ratio of a material's regular tensile strength to its compromised tensile strength. Strain Index, SI, was determined from the dynamic indentation hardness test. Worst Case Bonding Index was determined by assessing the extent of particle bonding remaining after decompression assuming a very short compression dwell time and a plastic mechanism of particle separation during decompression. Tableting Indices were determined for bulk azithromycin lots of six different crystalline forms, specifically forms N, M, G, A, F and J. Forms N, M and G were milled with a Fitzmill (Model JT, The Fitzpatrick Co., Elmhurst, Ill.) using a 0.027'' screen and knives at high speed in an attempt to match the smaller particle size of milled Form A. Unmilled forms F and J were evaluated “as is” due to their relatively small particle sizes.

[2] = Slug (compact) hardness, Schleuniger hardness tablet tester
Excerpt: A compaction simulator was used to compress the blends. The compaction simulator was designed as a single station tablet press in which the compression dwell time can be adjusted to simulate different types of tablet presses. All the formulations were slugged on the compaction simulator configured as the Kilian RX-67 press with a dwell time of 0.3145 seconds using […] round flat face tooling. The slugs were then comminuted using a Fitz mill with a 0.125″ screen with knives forward and run at slow speed. […] The slugs were tested for hardness (kP scale), using a Schleuniger hardness tablet tester (Dr. Schleuniger Pharmatron AG, Solothurn, Switzerland).

[3] = Tablet hardness, Schleuniger hardness tablet tester
Experimental: (§1) All four formulations were compressed on the compaction simulator using either 0.344″×0.688″ oval tooling, or ½″ standard round concave (SRC) tooling. The tablets were tested for hardness (kP scale), using a Schleuniger hardness tablet tester (Dr. Schleuniger Pharmatron AG, Solothurn, Switzerland), and for friability (100 rotations/4 minutes) using a Vanderkamp Friabulator Tablet Tester (Vankel, Cary, N.C., US).

[4] = Tablet friability, Vanderkamp Friabulator (100 rotations/4 minutes)
Experimental: Friability is a standard test known to one skilled in the art. Friability is measured under standardized conditions by weighing out a certain number of tablets (generally 20 tablets or less), placing them in a rotating Plexiglas drum in which they are lifted during replicate revolutions by a radial lever, and then dropped approximately 8 inches. After replicate revolutions (typically 100 revolutions at 25 rpm), the tablets are reweighed and the percentage of formulation abraded or chipped is calculated. The friability of the tablets, of the present invention, is preferably in the range of about 0% to 3%, and values about 1%, or less, are considered acceptable for most drug and food tablet contexts. Friability which approaches 0% is particularly preferred.
as §1

[5] = Tablet disintegration time, Automatic Disintegration Tester; details: Table 2A; Long blend; Oval tooling; distilled water at 37° C.
Experimental: The disintegration time was determined in distilled water at 37° C. using an Automatic Disintegration Tester (Model ZT72, Erweka USA Inc, Milford, Conn.) for the long blend tablets. Even with extensive blending times with magnesium stearate, reasonably short disintegration times of 15 and 20 seconds were obtained.

[6] = Tablet hardness, Schleuniger hardness tablet tester; remark: listed apart in the source
[7] = Tablet friability, Vanderkamp Friabulator (100 rotations/4 minutes); details: Table 4D; high drug loading; diluent DCP, dihyd.; modified capsule shape
[8] = Table 2B Run 4, Short blend, Oval tooling, compression force 12 kN
[9] = Table 4C, low drug loading, diluent DCP, anhyd., Oval tooling
[10] = Table 4C, low drug loading, diluent DCP, dihyd., SRC (½″) tooling
[11] = Table 2B Run 5, Short blend, Oval tooling, compression force 18.7 kN
[12] = Table 3D, high drug loading (58.2 wt % azithromycin), DCP anhydrous, modified capsule shape tablets, target weight 450 mg
[13] = Table 4C, low drug loading, diluent DCP, anhyd., SRC (½″) tooling
[14] = Table 4C, low drug loading, diluent DCP, dihyd., Oval tooling
[15] = Table 4D, high drug loading, diluent DCP, anhyd., modified capsule shape

Compound: CC[C@H]1OC(=O)[C@H](C)[C@@H](O[C@H]2C[C@@](C)(OC)[C@@H](O)[C@H](C)O2)[C@H](C)[C@@H](O[C@@H]2O[C@H](C)C[C@H](N(C)C)[C@H]2O)[C@](C)(O)C[C@@H](C)CN(C)[C@H](C)[C@@H](O)[C@]1(C)O [Form A, azithromycin dihydrate, reference compound]
- Brittle Fracture Index (BFI) [1]: 0.10
- Strain Index (SI) ([1]; dihydrate): 0.0044
- Tensile Strength ([1]; dihydrate): 0.99 Mpa
- Worst Case Bonding Index (BIw) × 10^2 ([1]; dihydrate): 0.9
- Avg Slug Hardness ([2]; 35.2 wt % azithromycin, dicalcium phosphate anhydrous diluent, Long blend method): 13.4 kP
- Avg Slug Hardness ([2]; 35.2 wt % azithromycin, dicalcium phosphate anhydrous diluent, Short blend method): 13.7 kP
- Avg Slug Hardness ([2]; Table 3A, low drug loading: 35.2 wt % azithromycin, 54.8 wt % dicalcium phosphate anhydrous, long blend): 13 kP
- Avg Slug Hardness ([2]; Table 3B, high drug loading: 58.2 wt % azithromycin, 31.8 wt % dicalcium phosphate anhydrous, long blend): 12 kP
- Avg Slug Hardness ([2]; Table 4A, low drug loading (35.2 wt % azithromycin), diluent DCP, anhyd.): 13 kP
- Avg Slug Hardness ([2]; Table 4A, low drug loading (35.2 wt % azithromycin), diluent DCP, dihyd.): 11 kP
- Avg Slug Hardness ([2]; Table 4B, high drug loading (58.2 wt % azithromycin), diluent DCP, anhyd.): 12 kP
- Avg Slug Hardness ([2]; Table 4B, high drug loading (58.2 wt % azithromycin), diluent DCP, dihyd.): 10 kP
- Avg Tablet Hardness ([3]; Table 2A, 35.2 wt % azithromycin, DCP anhydrous, Long blend, Oval tooling, compression force 13.5 kN (A), 19 kN (F)): 9.0 kP
- Avg Tab Hardness [3, 8]: 6.8 kP
- Avg Tablet Hardness [3, 9]: 9.0 kP
- Avg Tablet Hardness [3, 10]: 6.2 kP
- Friability ([4]; Table 2A, 35.2 wt % azithromycin, DCP anhydrous, Long blend, Oval tooling): 2 of 5
- Friability ([4]; Table 2A, 35.2 wt % azithromycin, DCP anhydrous, Long blend, ½″ SRC tooling): 1.30%
- Friability [4, 8]: capped
- Friability [4, 11]: capped
- Friability ([4]; Table 3C, low drug loading (35.2 wt % azithromycin), DCP anhydrous, oval tablets, target weight 750 mg, dihydrate): broke during friability testing; also recorded: Broken
- Friability [4, 12]: 0.50%
- Friability [4, 9]: Broken
- Friability [4, 13]: 1.30%
- Friability [4, 14]: Broken
- Friability [4, 10]: 0.94%
- Friability [4, 15]: 0.50%
- Mean disintegration Time [5]: 15 s
- Avg Tablet Hardness ([6]; Table 2A, 35.2 wt % azithromycin, DCP anhydrous, Long blend, ½″ SRC tooling, 9.6 kN): 5.8 kP
- Avg Tab Hardness [6, 11]: 8.2 kP
- Avg Hardness ([6]; Table 3C, low drug loading (35.2 wt % azithromycin), DCP anhydrous, oval tablets, target weight 750 mg): 9.0 kP
- Avg Hardness [6, 12]: 6.2 kP
- Avg Tablet Hardness [6, 13]: 5.8 kP
- Avg Tablet Hardness [6, 14]: 6.8 kP
- Avg Tablet Hardness [6, 15]: 6.2 kP
- Avg Tablet Hardness ([6]; Table 4D, high drug loading, diluent DCP, dihyd., modified capsule shape): 5.2 kP
- Friability [7]: 0.49%
